21 compounds from ChEMBL document CHEMBL5226308, “Amide-Amine Replacement in Indole-2-carboxamides Yields Potent Mycobactericidal Agents with Improved Water Solubility” (ACS Med Chem Lett, 2021) can be followed below.

Series [1] has as its system Mycobacterium tuberculosis. As to the kind of experiment: Antimycobacterial activity against Mycobacterium tuberculosis H37Rv ATCC 27294 assessed as inhibition of bacterial growth incubated for 7 days by broth dilution method. Particulars: H37Rv ATCC 27294, 168 h, time 7 day. Format: functional.
Series [2] has as its system Mycobacterium tuberculosis. The experiment in a line: Myco-bactericidal activity against Mycobacterium tuberculosis H37Rv ATCC 27294 assessed as inhibition of bacterial colony formation incubated for 7 days by agar plate method. Type of series: functional. The settings on record: H37Rv ATCC 27294, 168 h, time 7 day, read-out: MBC99.9.
Series [3] can be described thus: Aqueous solubility of the compound in aqueous buffer at 100 uM incubated for 24 hrs under agitation condition by UV-Vis spectrophotometric analysis. Format: physicochemical.
For series [4], the system named is Mycolicibacterium smegmatis. The experiment in a line: Disruption of proton motive force in Mycobacterium smegmatis spheroplasts assessed as disruption of proton gradient by measuring acidification of intracellular spaces within spheroplasts at 2XMIC90 measured after 30 mins by BCECF-AM dye based fluorescence analysis. Type of series: functional, organism-based.

Series [5] is described as follows: Effective permeability coefficient of the compound at 500 uM incubated for 18 hrs under agitation condition by PAMPA assay. Type of series: ADME. Particulars: for Papp at 18 h, 500 µM: PAMPA, read-out: Peff. For orientation: PAMPA measures passive passage across an artificial lipid membrane.
Series [6] in a line: Cytotoxicity against African green monkey Vero E6 cells assessed as reduction in cell viability incubated for 48 hrs by MTS assay. Format: toxicity, cell-based, Chlorocebus sabaeus, Vero C1008. For orientation: Tetrazolium assays rely on reduction of a dye to a coloured formazan, in cell work by metabolically active cells.
Series [7] in a line: Selectivity index, ratio of IC50 for cytotoxicity against African green monkey Vero E6 cells to MIC50 for antimycobacterial activity against Mycobacterium tuberculosis H37Rv ATCC 27294. Type of series: toxicity, cell-based, Vero C1008. Particulars: read-out: Selectivity Index.
Series [8] is described as follows: Selectivity index, ratio of IC50 for cytotoxicity against African green monkey Vero E6 cells to MIC50 for antimycobacterial activity against Mycobacterium bovis BCG ATCC 35734. The settings on record: read-out: Selectivity Index. Type of series: toxicity, cell-based, Vero C1008.
The nature of series [9]: Half life in rat liver microsomes at 200 uM incubated for 5 mins followed by NADPH addition and measured for 45 mins by LC-MS/MS analysis. Format: ADME, Microsome. Particulars: time 50 min. In general terms: Microsomes from liver hold many membrane-bound enzymes, among them those of drug oxidation.
Series [10] can be described thus: Ratio of MIC90 for antimycobacterial activity against Mycobacterium bovis BCG B16-1 harboring mmpL3 C1932G/F644L mutant to MIC90 for antimycobacterial activity against wild type Mycobacterium bovis BCG ATCC 35734. Type of series: functional.
The nature of series [11]: Ratio of MIC90 for antimycobacterial activity against Mycobacterium bovis BCG B16-2 harboring mmpL3 C1932A/F644L mutant to MIC90 for antimycobacterial activity against wild type Mycobacterium bovis BCG ATCC 35734. Type of series: functional.
Series [12] can be described thus: Ratio of MIC90 for antimycobacterial activity against Mycobacterium bovis BCG B33-1 harboring mmpL3 C1932G/F644L mutant to MIC90 for antimycobacterial activity against wild type Mycobacterium bovis BCG ATCC 35734. Type of series: functional.
The nature of series [13]: Ratio of MIC90 for antimycobacterial activity against Mycobacterium bovis BCG B33-2 harboring mmpL3 C765G/F255L mutant to MIC90 for antimycobacterial activity against wild type Mycobacterium bovis BCG ATCC 35734. Format: functional.
A short description of series [14]: Ratio of MIC90 for antimycobacterial activity against Mycobacterium bovis BCG B47-1 harboring mmpL3 C1932G/F644L mutant to MIC90 for antimycobacterial activity against wild type Mycobacterium bovis BCG ATCC 35734. Type of series: functional.
A short description of series [15]: Ratio of MIC90 for antimycobacterial activity against Mycobacterium bovis BCG B47-2 harboring mmpL3 G2041A/V681I mutant to MIC90 for antimycobacterial activity against wild type Mycobacterium bovis BCG ATCC 35734. Format: functional.
A short description of series [16]: Ratio of MIC90 for antimycobacterial activity against Mycobacterium bovis BCG B47-3 harboring mmpL3 T1930C/F644L mutant to MIC90 for antimycobacterial activity against wild type Mycobacterium bovis BCG ATCC 35734. Type of series: functional.
A short description of series [17]: Ratio of MIC90 for antimycobacterial activity against Mycobacterium bovis BCG B47-4 harboring mmpL3 C1932G/F644L mutant to MIC90 for antimycobacterial activity against wild type Mycobacterium bovis BCG ATCC 35734. Format: functional.
Series [18] relates to Mycolicibacterium smegmatis. The experiment in a line: Disruption of proton motive force in Mycobacterium smegmatis spheroplasts assessed as disruption of proton gradient by measuring acidification of intracellular spaces within spheroplasts at 2 to 5 uM measured after 30 mins by BCECF-AM dye based fluorescence analysis. Format: functional, organism-based. Particulars: dose 2-5 µM.

SMILES strings stand for the structures. In brackets after ≈: the same amount, converted by molar mass. Activity calls are given as the source filed them. No cut-off for these calls is given here. Some results are limits rather than exact numbers.

As to `NNC(=O)c1ccncc1` [ISONIAZID], in series [1], the MIC50 (commonly the lowest concentration that inhibits either 50% of growth or 50% of the strains tested, depending on the study) was 1.8 µM (≈ 0.247 µg/mL) and the MIC90 (commonly the lowest concentration that inhibits either 90% of growth or 90% of the strains tested, depending on the study) turned out to be 3.8 µM (≈ 0.521 µg/mL). Moreover, in [2], the MBC was determined as 3.2 µM (≈ 0.439 µg/mL).

On to `O=C(NC1CCC2(CCCCC2)CC1)c1cc2c(F)cc(F)cc2[nH]1`, for which the MIC90 in series [1] was found to be 0.003 µM (≈ 0.00104 µg/mL).

As to `O=C(NC1CCCCCCC1)c1cc2ccccc2[se]1`, the concentration in solution in series [3] (solubility at 24 h, 100 µM) came to 3.7 µM (≈ 1.24 µg/mL). In series [4], the outcome was inactive.

Turning to `O=C(NC1C2CC3CC(C2)CC1C3)c1cc2cc(Cl)ccc2[nH]1` (stereo not given), the MIC90 in series [1] was determined as 0.47 µM (≈ 0.155 µg/mL).

As for `O=C(NC1CCCCCCC1)c1cc2ccccc2[nH]1`, the concentration in solution in series [3] (solubility at 24 h, 100 µM) came to 2.4 µM (≈ 0.649 µg/mL).

Turning to `Brc1ccc2cc(CNC3CCCCCCC3)[nH]c2c1`, in [3], the solubility (usually the concentration that dissolves in the medium under given conditions) at 24 h, 100 µM amounted to 35.4 µM (≈ 11.9 µg/mL). For the same compound, the Papp at 18 h, 500 µM in series [5] was 13.4 ×10⁻⁶ cm/s.

Compound `Cc1cc(C)c2cc(CNC3CCCCCCC3)[nH]c2c1` showed a solubility at 24 h, 100 µM in series [3] of 70.1 µM (≈ 19.9 µg/mL). For the same compound, in [5], the Papp at 18 h, 500 µM came out at 18.4 ×10⁻⁶ cm/s. Moreover, in [1], the MIC90 amounted to 0.31 µM (≈ 0.0882 µg/mL).

Turning to `C[C@@H]1[C@H]2C[C@@H](C[C@H]1NC(=O)c1cc3c(F)cc(F)cc3[nH]1)C2(C)C`, in [1], the MIC90 was 0.012 µM (≈ 0.00399 µg/mL).

In series [3], `c1ccc2[se]c(CNC3CCCCCCC3)cc2c1` had a solubility at 24 h, 100 µM of 77.8 µM (≈ 24.9 µg/mL). The outcome in series [4] was inactive.

Turning to `O=C(NC1CCCCCCC1)c1cc2ccc(C(F)(F)F)cc2[nH]1`, the concentration in solution in series [3] (solubility at 24 h, 100 µM) came to 2.2 µM (≈ 0.744 µg/mL). Moreover, in [5], the Papp at 18 h, 500 µM amounted to 0.34 ×10⁻⁶ cm/s. For the same compound, the MIC50 in [1] was determined as 0.02 µM (≈ 0.00677 µg/mL). Besides, the MIC90 in [1] was found to be 0.04 µM (≈ 0.0135 µg/mL). In addition, the MBC in series [2] stood at 0.08 µM (≈ 0.0271 µg/mL). Besides, the IC50 (as a rule, the concentration at which inhibition is half-maximal) at 48 h in series [6] was over 100 µM. Moreover, the selectivity ratio in series [7] and in series [8] was over 5000 each time. Besides, in [9], the half-life (in general, how long it takes for the measured level to halve) at 200 µM was determined as 25.6 min. Further, the Ratio in series [10], in series [11], in series [12], in [13], in series [14] and in [15] was 5 in each case. The Ratio in series [16] and in [17] was 5 throughout. Moreover, the outcome in [4] was inactive.

In turn, `FC(F)(F)c1ccc2cc(CNC3CCCCCCC3)[nH]c2c1` had a solubility at 24 h, 100 µM in series [3] of 31 µM (≈ 10.1 µg/mL). In addition, the Papp at 18 h, 500 µM in series [5] came out at 13.4 ×10⁻⁶ cm/s. Besides, the MIC50 in series [1] stood at 0.05 µM (≈ 0.0162 µg/mL). Also, the MIC90 in series [1] is 0.13 µM (≈ 0.0422 µg/mL). Further, the MBC in series [2] came to 0.63 µM (≈ 0.204 µg/mL). In addition, the IC50 at 48 h in series [6] came out at 22 µM. Besides, the selectivity ratio came to 366 in series [7] and 550 in series [8]. This compound displayed a half-life at 200 µM in series [9] of 8.2 min. Further, the Ratio in series [10], in series [11], in series [12], in series [13], in series [14] and in series [15] was 5 each time. Besides, the Ratio in series [16] and in series [17] was 5 each time. The outcome in series [4] was inactive.

`CC1(C)CCC(NC(=O)c2cc3c(F)cc(F)cc3[nH]2)CC1`: the MIC50 in series [1] amounted to 0.023 µM (≈ 0.00705 µg/mL).

Turning to `CC1(C)CCC(NC(=O)c2cc3c(Cl)cc(Cl)cc3[nH]2)CC1`, the MIC50 in series [1] came out at 0.015 µM (≈ 0.00509 µg/mL).

The compound `O=C(NC1CCCCCCC1)c1cc2ccccc2s1` yielded a solubility at 24 h, 100 µM in series [3] of 3.3 µM (≈ 0.949 µg/mL). Moreover, the outcome in [4] was inactive.

For `O=C(NC1CCCCCCC1)c1cc2ccc(Br)cc2[nH]1`, the solubility at 24 h, 100 µM in series [3] turned out to be 1.6 µM (≈ 0.559 µg/mL). For the same compound, in series [5], the Papp at 18 h, 500 µM came out at 8.1 ×10⁻⁶ cm/s.

Consider `Cc1c(CN2CCN(C)CC2)cc(-c2ccc(Cl)cc2)n1-c1ccc(Cl)cc1`, for which the result in series [4] was inactive.

Regarding `CC(C)NCC(O)COc1cccc2ccccc12` (stereo not given) [PROPRANOLOL], the Papp at 18 h, 500 µM in series [5] was found to be 11.9 ×10⁻⁶ cm/s.

As for `c1ccc2[nH]c(CNC3CCCCCCC3)cc2c1`, in series [3], the concentration in solution (solubility at 24 h, 100 µM) came to 99.7 µM (≈ 25.6 µg/mL).

On to `Cc1cc(C)c2cc(C(=O)NC3CCCCCCC3)[nH]c2c1`, for which, in [3], the concentration in solution (solubility at 24 h, 100 µM) came to 5.7 µM (≈ 1.7 µg/mL). For the same compound, the Peff in [5] (pampa, 18 h, 500 µM) is recorded as 14 10^-6 cm/s. Besides, the MIC90 in [1] was 0.013 µM (≈ 0.00388 µg/mL).

For `c1ccc2sc(CNC3CCCCCCC3)cc2c1`, in series [3], the concentration in solution (solubility at 24 h, 100 µM) came to 73.5 µM (≈ 20.1 µg/mL). The Ratio in [10], in series [11], in series [12], in series [13], in series [14] and in series [15] was 5 each time. For the same compound, the Ratio in series [16] and in series [17] was 5 throughout. For the same compound, in [4], the result was inactive.

As for `N#CC(C#N)=NNc1cccc(Cl)c1`, in [18], the result was Active.
